Here are results for 2 molecules from patent US6462047B1, “Carboline derivatives as cGMP phosphodiesterase inhibitors” (ICOS Corporation, priority 2001, dated 2002).

What is called melting point is the temperature of the solid-liquid transition. In general, IC50 refers to the concentration needed to halve the response being measured. A word on the EC50: it is the midpoint of the concentration-response curve.

Data set [1] deals with conscious spontaneously hypertensive rats (SHRs). The data set can be described thus: Hypotensive effects in conscious spontaneously hypertensive rats. The format is in vivo, rat. The following applies: orally 5 mg/kg in 5% DMF and 95% olive oil; AUC from 0 to 5 hours of the fall in blood pressure. The protocol: The hypotensive effects of compounds according to the invention as identified in Table 2 were studied in conscious spontaneously hypertensive rats (SHRs). The compounds were administered orally at a dose of 5 mg/kg in a mixture of 5% DMF and 95% olive oil. Blood pressure was measured from a catheter inserted in the carotid artery and recorded for five hours after administration. The results are expressed as Area Under the Curve (AUC) from 0 to 5 hours, mm Hg.hours of the fall in blood pressure over time.

In the next data set the target is human recombinant PDE5 (Homo sapiens, UniProt O76074). The data set can be described thus: Inhibitory effect on cGMP-PDE (one-step assay adapted from Wells et al.). The format is biochemical. The note with it: human recombinant PDE5, 0.15 μM 8-[H3]-cGMP, 30 minutes incubation, 2% DMSO. The method, then: cGMP-PDE activity of compounds of the present invention was measured using a one-step assay adapted from Wells et al., Biochim. Biophys. Acta, 384, 430 (1975). The reaction medium contained 50 mM Tris-HCl, pH 7.5, 5 mM magnesium acetate, 250 μg/ml 5′-Nucleotidase, 1 mM EGTA, and 0.15 μM 8-[H^3]-cGMP. The enzyme used was a human recombinant PDE5 (ICOS Corp., Bothell, Wash.).
Compounds of the invention were dissolved in DMSO finally present at 2% in the assay.

The test system of data set [2] is Rat aortic smooth muscle cells (RSMC). As to the kind of experiment: cGMP level measurements in ANF-stimulated rat aortic smooth muscle cells. The note with it: 30 minutes at 37° C. with compound, then ANF (100 nM) for 10 minutes, dose giving half of the stimulation at saturating concentrations. The class given is cell-based. The protocol: Rat aortic smooth muscle cells (RSMC), prepared according to Chamley et al., Cell Tissue Res., 177, 503-522 (1977), were used between the 10th and 25th passage at confluence in 24-well culture dishes. Culture media was aspirated and replaced with PBS (0.5 ml) containing the compound tested at the appropriate concentration. After 30 minutes at 37° C., particulates guanylate cyclase was stimulated by addition of ANF (100 nM) for 10 minutes. At the end of incubation, the medium was withdrawn, and two extractions were performed by addition of 65% ethanol (0.25 ml). The two ethanolic extracts were pooled and evaporated until dryness, using a Speed-vac system. cGMP was measured after acetylation by scintillation proximity immunoassay (AMERSHAM). The EC50 values are expressed as the dose-giving half of the stimulation at saturating concentrations.

Turning to `O=C(/C=C/c1cccnc1)N1CCc2c([nH]c3ccccc23)C1c1ccc2c(c1)CCO2` (stereo not drawn) [Example 5, (E)-1-[1-(2,3-Dihydrobenzofuran-5-yl)-2,3,4,9-tetrahydro-β-carbolin-2-yl]-3-(pyridin-3-yl)-propene-1-one], the melting point is 221 to 222 °C. In addition, the “SHR AUC PO” value in data set [1] was found to be 12 mm Hg.h. Further, the half-maximal inhibitory concentration (IC50) on human recombinant PDE5 is 14 nM. Also, in data set [2], the EC50 was under 1000 nM.

Regarding `CN(C)c1ccc(/C=C/C(=O)N2CCc3c([nH]c4ccccc34)[C@H]2c2ccc3c(c2)CCO3)cn1` [Example 7, (E)-(R)-1-[1-(2,3-Dihydrobenzofuran-5-yl)-2,3,4,9-tetrahydro-β-carbolin-2-yl]-3-(6-dimethylamino-pyridin-3-yl)-propene-1-one], the melting point came to 171 °C. Besides, in data set [1], the “SHR AUC PO” value stood at 156 mm Hg.h. Besides, the IC50 at human recombinant PDE5 is 6 nM. Moreover, in data set [2], the half-maximal effective concentration (EC50) was under 1000 nM.
